# Measured values from publication PMC9329353, “Structures of Atm1 provide insight into [2Fe-2S] cluster export from mitochondria” (Nature Communications, 2022).
# Experiments:
# CtAtm1 [1] = target: T1, CtAtm1 (Thermochaetoides thermophila, UniProt G0SBE6, E603Q); experiment: cryo-EM structure, […] Å; settings: nanodiscs, 1 mM ATP, 1 mM GSSG, 1 mM MgCl2; occluded state; nucleotide-binding domains
# T1 construct: gene CTHT_0050000; full-length, C-terminal TEV site and His8 (pET-52b-CtATM1-TEV-His8), E. coli C43(DE3); DDM or MSP1D1 nanodiscs; homodimer; first 94 and last 26 residues not modelled (580 modelled)
# CtAtm1 [2] = target: T2, CtAtm1 (Thermochaetoides thermophila, UniProt G0SBE6); experiment: ATPase assay (phosphate release, absorbance at […] nm); type: biochemical; settings: 1 mM ATP, 5 mM MgCl2, 37 °C, detergent or nanodisc; no exogenous cargo
# T2 construct: gene CTHT_0050000; full-length, C-terminal TEV site and His8 (pET-52b-CtATM1-TEV-His8), E. coli C43(DE3); DDM or MSP1D1 nanodiscs; homodimer; first 94 and last 26 residues not modelled (580 modelled)
# [3] = target: CtAtm1 (ABC transporter of mitochondria 1 from Chaetomium thermophilum), wild type (Chaetomium thermophilum); experiment: cryo-EM structure; wild-type CtAtm1 in lipid nanodiscs (MSP1D1), incubated with 1 mM ATP and 2 mM MgCl2 for 30 min on ice, no cargo added; inward-facing open state, 3.0 Å
# T2 sequence (G0SBE6 entry or part of it): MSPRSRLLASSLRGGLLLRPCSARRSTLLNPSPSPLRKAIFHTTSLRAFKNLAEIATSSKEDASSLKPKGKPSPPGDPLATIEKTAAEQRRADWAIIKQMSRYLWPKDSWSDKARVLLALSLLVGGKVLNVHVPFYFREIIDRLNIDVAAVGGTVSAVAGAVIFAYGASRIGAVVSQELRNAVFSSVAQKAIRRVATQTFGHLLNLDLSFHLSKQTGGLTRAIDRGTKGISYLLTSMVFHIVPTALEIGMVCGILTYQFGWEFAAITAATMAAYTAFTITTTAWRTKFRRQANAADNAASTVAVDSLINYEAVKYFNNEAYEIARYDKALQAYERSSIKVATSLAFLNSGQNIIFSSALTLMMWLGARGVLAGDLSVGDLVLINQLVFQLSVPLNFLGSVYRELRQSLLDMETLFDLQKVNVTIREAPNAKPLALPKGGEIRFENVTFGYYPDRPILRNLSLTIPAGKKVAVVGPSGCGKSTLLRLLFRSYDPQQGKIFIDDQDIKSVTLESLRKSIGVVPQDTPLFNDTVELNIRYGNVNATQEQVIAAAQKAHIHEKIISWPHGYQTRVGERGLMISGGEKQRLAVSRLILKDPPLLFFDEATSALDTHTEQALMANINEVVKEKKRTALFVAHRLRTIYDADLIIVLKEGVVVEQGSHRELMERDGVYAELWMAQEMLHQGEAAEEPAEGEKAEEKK
# T1 sequence (G0SBE6 entry or part of it E603Q): as the sequence (G0SBE6 entry or part of it) above, with E603Q counted along it
molecule,measurement,setting,value
Nc1ncnc2c1ncn2[C@@H]1O[C@H](COP(=O)(O)OP(=O)(O)OP(=O)(O)O)[C@@H](O)[C@H]1O [ATP],"cryo-EM structure, 2.8 Å",CtAtm1 [1],two ATP molecules are readily identified in the cryo-EM density
same,"ATPase assay (phosphate release, absorbance at 620 nm)",CtAtm1 [2],exhibited clear and comparably robust ATP hydrolysis activity in detergent solution
"CtAtm1 (ABC transporter of mitochondria 1 from Chaetomium thermophilum), wild type (natural protein)",stoichiometry N,[3],2
